Data set [1] has as its system Jurkat. The data set is described as follows: Immunosuppressive activity in human Jurkat cells assessed as inhibition of concanavalin A-induced IL-2 production at 20 uM pretreated for 30 mins followed by concanavalin A stimulation after 12 hrs by immunoassay relative to control. The format is functional.
Data set [2] relates to Jurkat. The data set is described as follows: Immunosuppressive activity in human Jurkat cells assessed as inhibition of concanavalin A-induced IL-2 production pretreated for 30 mins followed by concanavalin A stimulation after 12 hrs by immunoassay. The format is functional, cell-based.
Data set [3] has as its system Jurkat. The data set is described as follows: Cytotoxicity against concanavalin A-induced human Jurkat cells assessed as reduction in cell viability up to 20 uM pretreated for 30 mins followed by concanavalin A stimulation after 12 hrs by MTT assay. The format is cell-based. Background: Formazan colour is commonly taken as a measure of viable cells.

Where only a bound is given, the exact number is not on record here.

Consider `CCCCCC/C=C\CCCCCCCc1cc(O)c(Cl)c(O)c1`, for which the inhibition (in general, the relative decrease from the control value, in per cent) at 20 µM with Jurkat [1] is < 50%.

In the case of `CCCCCC/C=C\CC/C=C\CCCc1cc(O)c(Cl)c(O)c1`, in the data set on Jurkat [1], the inhibition at 20 µM was < 50%. With `CCCCCC[C@H]1C[C@H]1CCCCCCCc1cc(O)c(Cl)c(O)c1`, in the data set with Jurkat [1], the inhibition at 20 µM is < 50%.

For `CCCCCCCCCCCCCCCc1cc(O)c(Cl)c(O)c1`, the inhibition at 20 µM with Jurkat [1] was < 50%. As for `CCCCCCCCCCCCCc1cc(O)c(Cl)c(O)c1`, in the data set on Jurkat [1], the inhibition at 20 µM is < 50%. In the data set with Jurkat [2], the IC50 (commonly the concentration needed to halve the response being measured) amounted to 16 µM and the inhibition entry is “Dose-dependent effect”. In the data set on Jurkat [3], the Activity entry was “Non-Toxic”. As to `CCCCCC/C=C\CCCCCc1cc(O)c(Cl)c(O)c1`, the inhibition at 20 µM in the data set with Jurkat [1] is < 50%. Same read-out and setting: the value for `CCCCCC[C@H]1C[C@H]1CCCCCc1cc(O)c(Cl)c(O)c1` was < 50%. On the same count and under the same terms, the same measure for `CCCCCCCCCCCCCCc1cc(O)c(Cl)c(O)c1`: < 50%.
